From ChEMBL document CHEMBL1147866, “Cyclic monophosphate prodrugs of base-modified 2'-C-methyl ribonucleosides as potent inhibitors of hepatitis C virus RNA replication” (Bioorg Med Chem Lett, 2007)

Assays:
Hepatitis C virus = experiment: Antiviral activity against hepatitis C virus replication; assay type: functional, organism-based, Hepacivirus hominis
[1] = test system: Bovine viral diarrhea virus 1; experiment: Antiviral activity against Bovine viral diarrhea virus 1; assay type: functional, organism-based; conditions: Bovine viral diarrhea virus isolates and strains
Rhesus monkey = experiment: Metabolic stability in monkey plasma after 1 hr; assay type: ADME, Macaca mulatta
Homo sapiens = species: Homo sapiens; experiment: Metabolic stability in human plasma after 1 hr; assay type: ADME, organism-based
[2] = Metabolic stability in rat plasma after 1 hr; assay type: ADME, organism-based; conditions: read-out: Stability

| Compound | EC50 (Hepatitis C virus) [nM] | EC50 [1] [nM] | Stability (Rhesus monkey) | Stability (Homo sapiens) | remaining at 1 h [2] [%] |
| --- | --- | --- | --- | --- | --- |
| CC(C)OC(=O)OCOP1(=O)O[C@H]2O[C@@H](n3cnc4c(N(C)NS(C)(=O)=O)ncnc43)[C@](C)(O)[C@@H]2O1 (some centres undefined) | 463 | 420 | – | – | – |
| CC(C)OC(=O)OCOP1(=O)O[C@H]2O[C@@H](n3cnc4c(N(C)NS(C)(=O)=O)nc(N)nc43)[C@](C)(O)[C@@H]2O1 (some centres undefined) | 163 | 216 | – | – | – |
| CN(NS(C)(=O)=O)c1ncnc2c1ncn2[C@@H]1O[C@@H]2OP(=O)(OCOC(=O)C(C)(C)C)O[C@H]2[C@@]1(C)O (some centres undefined) | 414 | 962 | – | – | – |
| CCCOC(C)(C)C(=O)SCCOP1(=O)O[C@H]2O[C@@H](n3cnc4c(N(C)NS(C)(=O)=O)nc(N)nc43)[C@](C)(O)[C@@H]2O1 (some centres undefined) | 8 | 16 | Stable | Stable | 4 |

The next lines start with the values.

| EC50 (Hepatitis C virus) [nM] | EC50 [1] [nM] | Stability (Rhesus monkey) | Stability (Homo sapiens) | remaining at 1 h [2] [%] | Compound |
| --- | --- | --- | --- | --- | --- |
| 39 | 110 | – | – | – | CCCOCC(C)(C)C(=O)SCCOP1(=O)O[C@H]2O[C@@H](n3cnc4c(N(C)NS(C)(=O)=O)ncnc43)[C@](C)(O)[C@@H]2O1 (some centres undefined) |
| 22 | 33 | – | – | – | CN(NS(C)(=O)=O)c1nc(N)nc2c1ncn2[C@@H]1O[C@@H]2OP(=O)(OCCSC(=O)C(C)(C)C)O[C@H]2[C@@]1(C)O (some centres undefined) |
| 145 | 245 | – | – | – | CN(NS(C)(=O)=O)c1ncnc2c1ncn2[C@@H]1O[C@@H]2OP(=O)(OCCSC(=O)C(C)(C)C)O[C@H]2[C@@]1(C)O (some centres undefined) |
| 92 | 223 | – | – | – | CN(NS(C)(=O)=O)c1nc(N)nc2c1ncn2[C@@H]1O[C@@H]2OP(=O)(OCOC(=O)C(C)(C)C)O[C@H]2[C@@]1(C)O (some centres undefined) |
